Literature values as cited in patent US20070122482A1, “Method for preparing modified release pharmaceutical compositions” (priority 2003, published 2007).
Where a name gives a salt, the structure may show the parent alone. Read-outs that look alike come from different tables or passages of the source.

Key:
[1] = for Solubility in water: Table 1, Poorly-Soluble Drug Candidates; for Solubility In Water: Table 2, Poorly-Soluble Drugs with Low Bioavailability

Compound | Solubility in water [1] | further results
COc1cc(N)c(Cl)cc1C(=O)NC1CCN(CCCOc2ccc(F)cc2)CC1OC (stereo not shown) [Cisapride] | Insoluble | Solubility In Water [1]: Insoluble
C[C@]12CC[C@H]3[C@@H](CCC4=CC(=O)CC[C@@]43C)[C@@H]1CC[C@@H]2O [Testosterone] | – | Bioavailability (in words) (Table 2): Low; Solubility In Water [1]: Insoluble
C#C[C@]1(O)CC[C@H]2[C@@H]3CCC4=Cc5oncc5C[C@]4(C)[C@H]3CC[C@@]21C [Danazol] | – | Bioavailability (in words) (Table 2): Low
OCCN1CCN(CCCN2c3ccccc3Sc3ccc(C(F)(F)F)cc32)CC1 [Fluphenazine] | – | Solubility In Water [1]: Insoluble
CCn1cc(C(=O)O)c(=O)c2cc(F)c(N3CCNCC3)cc21 [Norfloxacin] | Slightly | Solubility In Water [1]: Slightly soluble
CN1C(C(=O)Nc2ccccn2)=C(O)c2ccccc2S1(=O)=O [Piroxicam] | Sparingly | –
CCCCCc1cc(O)c2c(c1)OC(C)(C)[C@@H]1CCC(C)=C[C@@H]21 [Dronabinol] | – | Solubility In Water [1]: Insoluble
COc1ccc(CCN2CCC(Nc3nc4ccccc4n3Cc3ccc(F)cc3)CC2)cc1 [Astemizole] | Insoluble | Bioavailability (in words) (Table 2): Low-moderate; Solubility In Water [1]: Insoluble
CC(=O)OC[C@H]1O[C@@H]([S-])[C@H](OC(C)=O)[C@@H](OC(C)=O)[C@@H]1OC(C)=O.CCP(CC)CC.[Au+] [Auranofin] | – | Bioavailability (in vivo): Low (15-25%); Solubility In Water [1]: Slightly soluble
CC(C)(C)c1ccc(C(O)CCCN2CCC(C(O)(c3ccccc3)c3ccccc3)CC2)cc1 (stereo not shown) [Terfenadine] | Slightly | –
Cc1ccc(-c2nc3ccc(C)cn3c2CC(=O)N(C)C)cc1 [Zolpidem] | Sparingly | –
CC(=O)S[C@@H]1CC2=CC(=O)CC[C@]2(C)[C@H]2CC[C@@]3(C)[C@@H](CC[C@@]34CCC(=O)O4)[C@H]12 [Spironolactone] | – | Solubility In Water [1]: Insoluble
CC(C)(C)NC(=O)[C@H]1CC[C@H]2[C@@H]3CC[C@H]4NC(=O)C=C[C@]4(C)[C@H]3CC[C@]12C [Finasteride] | Insoluble | –
CN1CCN(C2=Nc3cc(Cl)ccc3Nc3ccccc32)CC1 [Clozapine] | Slightly | –
CC(C)Cc1ccc(C(C)C(=O)O)cc1 (stereo not shown) [Ibuprofen] | Insoluble | –
CN[C@H]1CC[C@@H](c2ccc(Cl)c(Cl)c2)c2ccccc21 [Sertraline] | Slightly | Solubility In Water [1]: Slightly soluble
CCCC1O[C@@H]2C[C@H]3[C@@H]4CCC5=CC(=O)C=C[C@]5(C)[C@H]4[C@@H](O)C[C@]3(C)[C@]2(C(=O)CO)O1 (stereo partly shown) [Budesonide] | Sparingly | Bioavailability (Table 2): Low (˜15%); Solubility In Water [1]: Sparingly soluble
Cn1cnc([N+](=O)[O-])c1Sc1ncnc2nc[nH]c12 [Azathioprine] | Insoluble | –
CN(C/C=C/C#CC(C)(C)C)Cc1cccc2ccccc12 [Terbinafine] | Slightly | –
O=C(O)Cc1ccccc1Nc1c(Cl)cccc1Cl [Diclofenac sodium] | Sparingly | –
NC(=O)N1c2ccccc2C=Cc2ccccc21 [Carbamazepine] | Insoluble | –
COc1ccc2cc(CCC(C)=O)ccc2c1 [Nabumetone] | Insoluble | Solubility In Water [1]: Insoluble

Compound | Solubility in water [1] | further results
CC1CC(OC(=O)C(O)c2ccccc2)CC(C)(C)C1 (stereo not shown) [Cyclandelate] | – | Bioavailability (in words) (Table 2): Low; Solubility In Water [1]: Insoluble
C[C@@](Cc1ccc(O)c(O)c1)(NN)C(=O)O [Carbidopa] | Slightly | –
OCCN1CCN(CCCN2c3ccccc3Sc3ccc(Cl)cc32)CC1 [Perphenazine] | – | Bioavailability (in words) (Table 2): Low
CC(C(=O)O)c1ccc(-c2ccccc2)c(F)c1 (stereo not shown) [Flurbiprofen] | Slightly | –
CCOC(=O)[C@H](CCc1ccccc1)N[C@@H](C)C(=O)N1Cc2ccccc2C[C@H]1C(=O)O [Quinapril] | Insoluble | –
CCc1cccc2c3c([nH]c12)C(CC)(CC(=O)O)OCC3 (stereo not shown) [Etodolac] | Insoluble | –
CCOC(=O)C1=C(C)NC(C)=C(C(=O)OC)C1c1cccc(Cl)c1Cl (stereo not shown) [Felodipine] | Insoluble | Solubility In Water [1]: Insoluble
OCCN(CCO)c1nc(N2CCCCC2)c2nc(N(CCO)CCO)nc(N3CCCCC3)c2n1 [Dipyridamole] | Slightly | –
COC(=O)C1=C(C)NC(C)=C(C(=O)OC(C)C)C1c1cccc2nonc12 (stereo not shown) [Isradipine] | Insoluble | Solubility In Water [1]: Insoluble
Nc1ccc(O)c(C(=O)O)c1 [Mesalamine] | – | Bioavailability (Table 2): Low (˜20%)
CN1CCCC(n2nc(Cc3ccc(Cl)cc3)c3ccccc3c2=O)CC1 (stereo not shown) [Azelastine] | Insoluble | –
Cc1nnc2n1-c1ccc(Cl)cc1C(c1ccccc1)=NC2 [Alprazolam] | Insoluble | –
CCOC(=O)[C@H](CCc1ccccc1)N[C@@H](C)C(=O)N1CCC[C@H]1C(=O)O [Enalapril] | Sparingly | –
CCCC(CCC)C(=O)O [Divalproex] | Slightly | –
COc1cc2nc(N3CCN(C(=O)C4COc5ccccc5O4)CC3)nc(N)c2cc1OC (stereo not shown) [Doxazosin] | Slightly | –
CC(C)(C)NC(=O)[C@@H]1C[C@@H]2CCCC[C@@H]2CN1C[C@@H](O)[C@H](Cc1ccccc1)NC(=O)[C@H](CC(N)=O)NC(=O)c1ccc2ccccc2n1 [Saquinavir] | Practically insoluble | –
O=C1NC(=O)C(c2ccccc2)(c2ccccc2)N1 [Phenytoin] | Insoluble | –
OC(CCN1CCCCC1)(c1ccccc1)C1CC2C=CC1C2 (stereo not shown) [Biperiden] | – | Solubility In Water [1]: Sparingly soluble
Cc1ncc2n1-c1ccc(Cl)cc1C(c1ccccc1F)=NC2 [Midazolam] | Insoluble | –
CCOC(=O)[C@H](CCc1ccccc1)N[C@@H](C)C(=O)N1[C@H](C(=O)O)C[C@@H]2CCC[C@@H]21 [Ramipril] | Insoluble | –
COc1cc([C@@H]2c3cc4c(cc3[C@@H](O[C@@H]3O[C@@H]5CO[C@@H](C)O[C@H]5[C@H](O)[C@H]3O)[C@H]3COC(=O)[C@H]23)OCO4)cc(OC)c1O [Etoposide] | Very Slightly | –
OC(Cn1cncn1)(Cn1cncn1)c1ccc(F)cc1F [Fluconazole] | Slightly | –

Compound | Solubility in water [1] | further results
CC(=O)N1CCN(c2ccc(OCC3COC(Cn4ccnc4)(c4ccc(Cl)cc4Cl)O3)cc2)CC1 (stereo not shown) [Ketoconazole] | Insoluble | –
COc1ccc2[nH]c([S+]([O-])Cc3ncc(C)c(OC)c3C)nc2c1 (stereo not shown) [Omeprazole] | Slightly | –
CC(CCc1ccc(O)cc1)NCCc1ccc(O)c(O)c1 (stereo not shown) [Dobutamine] | Sparingly | –
O=[N+]([O-])O[C@H]1CO[C@H]2[C@@H]1OC[C@H]2O[N+](=O)[O-] [Isosorbide dinitrate] | Sparingly | Solubility In Water [1]: Sparingly soluble
Cc1cccc(Nc2ccccc2C(=O)O)c1C [Mefenamic acid] | Slightly | –
C=CCC1(CC(C)C)C(=O)NC(=O)NC1=O [Butalbital] | Insoluble | –
COCCCC/C(=N\OCCN)c1ccc(C(F)(F)F)cc1 [Fluvoxamine] | Sparingly | –
CN1CCC[C@@H]1CCO[C@](C)(c1ccccc1)c1ccc(Cl)cc1 [Clemastine fumarate] | – | Bioavailability (Table 2): Low (˜39%); Solubility In Water [1]: Slightly soluble
CC[C@H](C)C(=O)O[C@H]1C[C@@H](C)C=C2C=C[C@H](C)[C@H](CC[C@@H]3C[C@@H](O)CC(=O)O3)[C@H]21 [Lovastatin] | Insoluble | Solubility In Water [1]: Insoluble
NC(N)=Nc1nc(CSCCC(N)=NS(N)(=O)=O)cs1 [Famotidine] | Slightly | Solubility In Water [1]: Slightly soluble
CC1=C(/C=C/C(C)=C/C=C/C(C)=C\C(=O)O)C(C)(C)CCC1 [Isotretinoin] | Insoluble | –
Cc1c(OCC(F)(F)F)ccnc1C[S+]([O-])c1nc2ccccc2[nH]1 (stereo not shown) [Lansoprazole] | Insoluble | –
C[C@@H]1C[C@H]2[C@@H]3CCC4=CC(=O)C=C[C@]4(C)[C@@]3(Cl)[C@@H](O)C[C@]2(C)[C@@]1(O)C(=O)CCl [Mometasone] | Insoluble | –
CO/N=C(\C(=O)N[C@@H]1C(=O)N2C(C(=O)O)=C(COC(C)=O)CS[C@H]12)c1csc(N)n1 [Cefotaxime] | Sparingly | –
CC[C@H]1OC(=O)[C@H](C)[C@@H](O[C@H]2C[C@@](C)(OC)[C@@H](O)[C@H](C)O2)[C@H](C)[C@@H](O[C@@H]2O[C@H](C)C[C@H](N(C)C)[C@H]2O)[C@](C)(OC)C[C@@H](C)C(=O)[C@H](C)[C@@H](O)[C@]1(C)O [Clarithromycin] | Insoluble | –
COc1ccc(Cl)cc1C(=O)NCCc1ccc(S(=O)(=O)NC(=O)NC2CCCCC2)cc1 [Glyburide] | Sparingly | –
Nc1nnc(-c2cccc(Cl)c2Cl)c(N)n1 [Lamotrigine] | Slightly | –
CC(=O)O[C@H]1C(=O)[C@@]2(C)[C@H]([C@H](OC(=O)c3ccccc3)[C@]3(O)C[C@H](OC(=O)[C@H](O)[C@@H](NC(=O)c4ccccc4)c4ccccc4)C(C)=C1C3(C)C)[C@]1(OC(C)=O)CO[C@@H]1C[C@@H]2O [Paclitaxel] | Insoluble | –
CO[C@]12C[C@@H](COC(=O)c3cncc(Br)c3)CN(C)[C@@H]1Cc1cn(C)c3cccc2c13 [Nicergoline] | Insoluble | –
CCOC(=O)C1=C(COCCN)NC(C)=C(C(=O)OC)C1c1ccccc1Cl (stereo not shown) [Amlodipine] | Slightly | –
Cholestyramine | Insoluble | –
